Experimental data from US11512089B2, “Substituted [1,2,4]triazolo[3,4-a]phthalazines as modulators of GABAA receptor activity” (SHANGHAI SIMR BIOTECHNOLOGY CO., LTD, priority 2018, dated 2022).
Values after ≈ are worked out from the molar mass of the structure shown.

Assay: Kinetic solubility in 50 mM phosphate buffer pH 7.4
Type: physicochemical
Details: aqueous buffer, kinetic from dmso stock, 50 mM phosphate buffer pH 7.4, 2% DMSO, room temperature
Protocol: 50 mM phosphate buffer pH=7.4: 0.39 g of NaH2PO4.2H2O, and 1.4025 g of Na2HPO4 were weighted and placed in an erlenmeyer flask, 240 mL of water was added. The solid was dissolved and mixed thoroughly, the pH value was adjusted to 7.4 with 10M NaOH solution, and the resulting solution was transferred to a 250 mL volumetric flask, followed by adding water to the mark.
Waters e2695 HPLC high performance liquid chromatography, Mettler XSE105 analytical balance.
Firstly, a 10 mM stock solution with DMSO as the solvent was prepared, and was diluted with a diluent (ACN: PB buffer 50:50) into 1 μM-200 μM as standard solution.
Kinetic solubility. 30 μL of the stock solution was placed in a 2 mL centrifuge tube, 1470 μL of 50 mM phosphate buffer (pH 7.4) (containing DMSO at a final concentration of 2%) was added. The mixture was shaken at room temperature (1000 rpm/min) for 24 hours, and then filtered. The filtrate was tested by high performance liquid chromatography (UV).

| solubility kinetic at 24 h | Structure (SMILES) |
| --- | --- |
| 26.5 µg/mL (≈ 50 µM) | COCc1cc(-c2nnc3c4ccccc4c(OCc4ccc(C(=O)N5CCC(OC)CC5)cn4)nn23)no1 [Compound 57, (6-(((3-(5-(methoxymethyl)isoxazol-3-yl)-[1,2,4]triazolo[3,4-a]phthalazin-6-yl)oxy)methyl)pyridin-3-yl)(4-methoxypiperidin-1-yl)methanone] |
| 102 µg/mL (≈ 197 µM) | COCc1cc(-c2nnc3c4ccccc4c(OCc4ccc(C(=O)N5CCCOCC5)cn4)nn23)no1 [Compound 55] |
| 28 µg/mL (≈ 53 µM) | COCc1cc(-c2nnc3c4ccccc4c(OCc4ccc(C(=O)N5CCN(C)C(=O)C5)cn4)nn23)no1 [Compound 53] |
| 1.46 µg/mL (≈ 2.77 µM) | COCc1cc(-c2nnc3c4ccccc4c(OCc4ccc(C(=O)N(C)CC(F)(F)F)cn4)nn23)no1 [Compound 58] |
| 3.88 µg/mL (≈ 7.99 µM) | Cc1cc(-c2nnc3c4ccccc4c(OCc4ccc(C(=O)NC5CCOCC5)cn4)nn23)no1 [reference compound] |
| 51.9 µg/mL (≈ 94.7 µM) | COCCN(CCOC)C(=O)c1ccc(COc2nn3c(-c4cc(COC)on4)nnc3c3ccccc23)nc1 [Compound 52] |

Further lines, the compound ahead of its results:

| Structure (SMILES) | solubility kinetic at 24 h |
| --- | --- |
| COCc1cc(-c2nnc3c4ccccc4c(OCc4ccc(C(=O)N(C)C5CC5)cn4)nn23)no1 [Compound 50] | 3.75 µg/mL (≈ 7.72 µM) |
| COCc1cc(-c2nnc3c4ccccc4c(OCc4ccc(C(=O)NC(C)(C)COC)cn4)nn23)no1 [Compound 14, N-(2-methoxy-1,1-dimethyl-ethyl)-6-[3-(5-methoxymethyl-isoxazol-3-yl)-[1,2,4]triazolo[3,4-a]phthalazin 6-yloxymethyl]-nicotinamide] | 35.7 µg/mL (≈ 68.9 µM) |
| COCc1cc(-c2nnc3c4ccccc4c(OCc4ccc(C(=O)NC5CCC(F)(F)CC5)cn4)nn23)no1 [Compound 33] | 2.99 µg/mL (≈ 5.44 µM) |
| COCc1cc(-c2nnc3c4ccccc4c(OCc4ccc(C(=O)N[C@H](C)COC)cn4)nn23)no1 [Compound 09, (R)—N-(2-methoxy-1-methyl-ethyl)-6-[3-(5-methoxymethyl-isoxazol-3-yl)-[1,2,4]triazolo[3,4-a]phthalazin-6-yloxymethyl]-nicotinamide] | 27.7 µg/mL (≈ 55 µM) |
| COCc1cc(-c2nnc3c4ccccc4c(OCc4ccc(C(=O)NC(C)C(F)(F)F)cn4)nn23)no1 (stereo not drawn) [Compound 27] | 5.58 µg/mL (≈ 10.6 µM) |
| COCc1cc(-c2nnc3c4ccccc4c(OCc4ccc(C(=O)N5CCC(F)(F)C5)cn4)nn23)no1 [Compound 51] | 5.62 µg/mL (≈ 10.8 µM) |
| COCc1cc(-c2nnc3c4ccccc4c(OCc4ccc(C(N)=O)cn4)nn23)no1 [Compound 36] | 0.8 µg/mL (≈ 1.85 µM) |
| COCc1cc(-c2nnc3c4ccccc4c(OCc4ccc(C(=O)NC5(C#N)CC5)cn4)nn23)no1 [Compound 19] | 1.06 µg/mL (≈ 2.14 µM) |
| COCc1cc(-c2nnc3c4ccccc4c(OCc4ccc(C(=O)N5CC(C)OC(C)C5)cn4)nn23)no1 (stereo not drawn) [Compound 44] | 74.6 µg/mL (≈ 141 µM) |
| COCc1cc(-c2nnc3c4ccccc4c(OCc4ccc(C(=O)NC5CCOCC5)cn4)nn23)no1 [Compound 04, 6-[3-(5-methoxymethyl-isoxazol-3-yl)-[1,2,4]triazolo[3,4-a]phthalazin-6-yloxymethyl]-N-(tetrahydro-pyran-4-yl)-nicotinamide] | 13.1 µg/mL (≈ 25.5 µM) |
| COCc1cc(-c2nnc3c4ccccc4c(OCc4ccc(C(=O)NCCO)cn4)nn23)no1 [Compound 16, N-(2-hydroxy-ethyl)-6-[3-(5-methoxymethyl-isoxazol-3-yl)-[1,2,4]triazolo[3,4-a]phthalazin-6-yloxymethyl]-nicotinamide] | 49.4 µg/mL (≈ 104 µM) |
| COCc1cc(-c2nnc3c4ccccc4c(OCc4ccc(C(=O)NC5CCC(F)(F)C5)cn4)nn23)no1 (stereo not drawn) [Compound 35] | 5.62 µg/mL (≈ 10.5 µM) |
| COCc1cc(-c2nnc3c4ccccc4c(OCc4ccc(C(=O)NC5CC(F)C5)cn4)nn23)no1 (stereo not drawn) [Compound 21] | 1.18 µg/mL (≈ 2.34 µM) |
| COCc1cc(-c2nnc3c4ccccc4c(OCc4ccc(C(=O)NCCF)cn4)nn23)no1 [Compound 22] | 8.92 µg/mL (≈ 18.7 µM) |
| COCc1cc(-c2nnc3c4ccccc4c(OCc4ccc(C(=O)N5CC(O)C5)cn4)nn23)no1 [Compound 41] | 6.57 µg/mL (≈ 13.5 µM) |
